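GI50 = concentration required for 50% inhibition of growth. TGI marks complete inhibition of growth.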
How the values were obtained:
Experiment in all cases: inhibition of tumour cell growth, NCI panel, 384-well format
[1] = system: 786-0 renal
[2] = system: A498 renal
[3] = system: A549 NSCLC
[4] = system: ACHN renal
[5] = system: BT-549 breast
[6] = system: CAKI-1 renal
[7] = system: CCRF-CEM leukemia
[8] = system: COLO 205 colon
[9] = system: DU-145 prostate
[10] = system: EKVX NSCLC
[11] = system: HCC-2998 colon
[12] = system: HCT-116 colon
[13] = system: HCT-15 colon
[14] = system: HL-60(TB) leukemia
[15] = system: HOP-62 NSCLC
[16] = system: HOP-92 NSCLC
[17] = system: HS 578T breast
[18] = system: HT29 colon
[19] = system: IGROV1 ovarian
[20] = system: K-562 leukemia
[21] = system: KM12 colon
[22] = system: LOX IMVI melanoma
[23] = system: M14 melanoma
[24] = system: MALME-3M melanoma
[25] = system: MCF7 breast
[26] = system: MDA-MB-231 breast
[27] = system: MDA-MB-435 melanoma
[28] = system: MDA-MB-468 breast
[29] = system: MOLT-4 leukemia
[30] = system: NCI-H226 lung
[31] = system: NCI-H23 lung
[32] = system: NCI-H322M lung
[33] = system: NCI-H460 NSCLC
[34] = system: NCI-H522 lung
[35] = system: NCI/ADR-RES ovarian
[36] = system: OVCAR-3 ovarian
[37] = system: OVCAR-4 ovarian
[38] = system: OVCAR-5 ovarian
[39] = system: OVCAR-8 ovarian
[40] = system: PC-3 prostate
[41] = system: RPMI-8226 leukemia
[42] = system: RXF 393 renal
[43] = system: SF-268 CNS
[44] = system: SF-295 CNS
[45] = system: SF-539 CNS
[46] = system: SK-MEL-28 melanoma
[47] = system: SK-MEL-5 melanoma
[48] = system: SK-OV-3 ovarian
[49] = system: SN12C renal
[50] = system: SNB-19 CNS
[51] = system: SNB-75 CNS
[52] = system: SR leukemia
[53] = system: SW-620 colon
[54] = system: T-47D breast
[55] = system: TK-10 renal
[56] = system: U251 glioblastoma
[57] = system: UACC-257 melanoma
[58] = system: UO-31 renal

SMILES: CC1(O)CC(c2nc(-c3ccc4ccc(-c5ccccc5)nc4c3)c3c(N)nccn23)C1 (stereo unspecified)
- GI50 [1]: 12.5 µM
- TGI [1]: 25.1 µM
- GI50 [2]: 6.67 µM
- TGI [2]: 19 µM
- GI50 [3]: 10.3 µM
- TGI [3]: 23.3 µM
- GI50 [4]: 5.3 µM
- TGI [4]: 22.4 µM
- GI50 [5]: 5.8 µM
- TGI [5]: 18.2 µM
- GI50 [6]: 5.36 µM
- TGI [6]: 18.3 µM
- GI50 [7]: 5.63 µM
- TGI [7]: 17.9 µM
- GI50 [8]: 0.209 µM
- TGI [8]: 11.3 µM
- GI50 [9]: 5.74 µM
- TGI [9]: 20.3 µM
- GI50 [10]: 2.74 µM
- TGI [10]: 16.9 µM
- GI50 [11]: 8.12 µM
- TGI [11]: 20.7 µM
- GI50 [12]: 7.55 µM
- TGI [12]: 20.7 µM
- GI50 [13]: 3.09 µM
- TGI [13]: 14.6 µM
- GI50 [14]: 0.0517 µM
- TGI [14]: 1.61 µM
- GI50 [15]: 7.05 µM
- TGI [15]: 20.3 µM
- GI50 [16]: 2.73 µM
- TGI [16]: 15.3 µM
- GI50 [17]: 9.96 µM
- TGI [17]: 21.6 µM
- GI50 [18]: 0.306 µM
- TGI [18]: 16 µM
- GI50 [19]: 10.7 µM
- TGI [19]: 24.1 µM
- GI50 [20]: 7.3 µM
- TGI [20]: 20.5 µM
- GI50 [21]: 3.97 µM
- TGI [21]: 13.8 µM
- GI50 [22]: 11.1 µM
- TGI [22]: 23.2 µM
- GI50 [23]: 10.5 µM
- TGI [23]: 22.4 µM
- GI50 [24]: 2.76 µM
- TGI [24]: 12.3 µM
- GI50 [25]: 0.182 µM
- TGI [25]: 13.4 µM
- GI50 [26]: 5.42 µM
- TGI [26]: 18.9 µM
- GI50 [27]: 7.98 µM
- TGI [27]: 20.8 µM
- GI50 [28]: 1.9 µM
- TGI [28]: 6.36 µM
- GI50 [29]: 2.89 µM
- TGI [29]: 10.4 µM
- GI50 [30]: 2.86 µM
- TGI [30]: 12.2 µM
- GI50 [31]: 2.17 µM
- TGI [31]: 14.9 µM
- GI50 [32]: 4.22 µM
- TGI [32]: 17.4 µM
- GI50 [33]: 2.79 µM
- TGI [33]: 15.5 µM
- GI50 [34]: 5.74 µM
- TGI [34]: 19 µM
- GI50 [35]: 5.47 µM
- TGI [35]: 18.7 µM
- GI50 [36]: 10.5 µM
- TGI [36]: 22.4 µM
- GI50 [37]: 10.3 µM
- TGI [37]: 22.5 µM
- GI50 [38]: 12.7 µM
- TGI [38]: 25.9 µM
- GI50 [39]: 10.2 µM
- TGI [39]: 22 µM
- GI50 [40]: 10 µM
- TGI [40]: 22.8 µM
- GI50 [41]: 1.32 µM
- TGI [41]: 4.12 µM
- GI50 [42]: 2.76 µM
- TGI [42]: 9.01 µM
- GI50 [43]: 10.8 µM
- TGI [43]: 22.9 µM
- GI50 [44]: 12.9 µM
- TGI [44]: 25.6 µM
- GI50 [45]: 13 µM
- TGI [45]: 25.8 µM
- GI50 [46]: 13.8 µM
- TGI [46]: 26.7 µM
- GI50 [47]: 2.43 µM
- TGI [47]: 12 µM
- GI50 [48]: 8.99 µM
- TGI [48]: 21 µM
- GI50 [49]: 12.8 µM
- TGI [49]: 25.6 µM
- GI50 [50]: 13 µM
- TGI [50]: 25.9 µM
- GI50 [51]: 10.3 µM
- TGI [51]: 22 µM
- GI50 [52]: 10.2 µM
- TGI [52]: 21.8 µM
- GI50 [53]: 3.85 µM
- TGI [53]: 17.9 µM
- GI50 [54]: 4.67 µM
- TGI [54]: 14.3 µM
- GI50 [55]: 6.58 µM
- TGI [55]: 19.3 µM
- GI50 [56]: 13 µM
- TGI [56]: 25.8 µM
- GI50 [57]: 10.7 µM
- TGI [57]: 22.5 µM
- GI50 [58]: 6.8 µM
- TGI [58]: 20.5 µM

Reference: PubChem BioAssay (NCI)
